Experiments:
PC3 + WPMY-1 tumors = test: Subcutaneous xenograft co-implantation of PC3 and WPMY-1 cells in NSG mice; type: in vivo, mouse; settings: Olaparib 40 mg/kg i.p. twice a week, 2 weeks
Method: For mouse xenografts using PC3 PCa cells and sgC or sgAP-1 WPMY-1 stromal cells. 7 weeks old NSG mice were surgical castrated and let androgen levels drop for 10 days. Cells were trypsinized washed two times in PBS and resuspend in DMEN. 1×10^6 PC3 and 1×10^6 sgC or sgAP1-A WPMY-1 for each mouse were resuspended in 100 μl DMEM: Matrigel (1:1) and injected subcutaneously into both flanks of immunocompromised NSG mice (PC3+sgC WPMY-1 n=4; PC3+sgAP-1 WPMY-1 n=4). Tumors were allowed to grow for 1 month. Mice were euthanized and tumors were collected and analyzed histologically. For Olaparib treatment in mouse xenografts. PC3 PCa cells and WPMY-1 stromal cells were trypsinized washed two times in PBS and resuspend in DMEN. 1×10^6 PC3 and 1×10^6 WPMY-1 for each mouse were resuspended in 100 μl DMEM: Matrigel (1:1) and injected subcutaneously into both flanks of immunocompromised NSG mice. Tumors were allowed to grow for 14 days, and mouse were randomly divided to receive vehicle, n=10, Olaparib (40 mg/kg, 2 days each week, i.p.), n=10 or Olaparib (40 mg/kg, 2 days each week, i.p.)+_PEGPH20 (0.0375 mg/Kg, 2 days each week, retroorbital injection) n=10. Tumors were measured twice a week. Mice were euthanized 14 days after the initiation of the treatment and tumors were collected and analyzed histologically. For Olaparib treatment in mice, 13 weeks-old male TRAMP^+, n=18, were randomly distributed to receive vehicle, n=9, or Olaparib (40 mg/kg/, 5 days each week, i.p.), n=9. Mice were euthanized 1 month after the initiation of the treatment. Prostate and other organs were collected and analyzed histologically.
Tissues from indicated mice were isolated, fixed in zinc buffered formalin overnight at 4° C., dehydrated, and embedded in paraffin. Sections (5 μm) were stained with hematoxylin and eosin (H&E). For immunohistochemistry, sections were deparaffinized, rehydrated, and then treated for antigen retrieval. […] Stained sections were analyzed with a Zeiss light microscope supplemented with Zen 3.3 Bule edition software.

WPMY-1 cells = test: ATAC-seq chromatin accessibility in WPMY-1 cells; type: cell-based, human; settings: Olaparib-treated WPMY-1 cells, 96 h
Method: The cell pellet was resuspended in 50 μl lysis buffer and then spun down 500×g for 10 minutes at 4° C. The nuclei pellet was resuspended into 50 μl transposition reaction mixture containing Tn5 transposase from Nextera DNA Library Prep Kit (Illumina) and incubated at 37° C. for 30 minutes. Then the transposase-associated DNA was purified using MinElute PCR purification kit (QIAGEN). To amplify the library, the DNA was first amplified for 5 cycles using indexing primer from Nextera kit and NEBNext High-Fidelity 2×PCR master mix. To reduce the PCR amplification bias, 5 μl of amplified DNA after the first 5 cycles was used to do qPCR of 20 cycles to decide the number of cycles for the second round of PCR. Usually, the maximum cycle of the second round of PCR is 5 cycles. Then the total amplified DNA was size selected to fragments less than 800 bp using SPRI beads. Quantification of the ATAC-seq library was done with QuBit. The size of the pooled library was examined by TapeStation. Barcoded ATAC-seq libraries were pooled and paired end sequenced (sX75) on the Illumina NextSeq 500 using the High output V2.5 kit (Illumina Inc., San Diego, CA).
Peaks were annotated with ChipSeeker R package. […].

O=C(c1cc(Cc2n[nH]c(=O)c3ccccc23)ccc1F)N1CCN(C(=O)C2CC2)CC1 [Olaparib]
desmoplastic response (collagen, HA, aSMA, p62) (PC3 + WPMY-1 tumors): strong desmoplastic response | tumor growth (weight, volume) (PC3 + WPMY-1 tumors): efficiently reduced tumor growth | chromatin accessibility (WPMY-1 cells): strong decrease in chromatin accessibility across the genome

Reference: patent US20250073234A1, “COMBINATION THERAPIES INCLUDING PARP1 INHIBITORS” (Cornell University, priority 2022, published 2025)
